Measured values reported in patent US6399634B1, “Benzothiophene compounds, compositions, and methods” (Eli Lilly and Company, priority 1994, dated 2002).
“And” between values parts separate entries of the source, which are not always exact repeats. Equal entries are not always repeated. Structures can show the parent of a compound that is named as a salt.

Legend:
[1] = tested on: Uterine Eosinophil Peroxidase (EPO); assay: Uterine Eosinophil Peroxidase (EPO) Assay on uteri of dosed OVX rats; assay type: in vivo, Sprague Dawley rats; set-up: unit not given here
Excerpt: (§1) Seventy-five day old female Sprague Dawley rats (weight range of 200 to 225 g) were obtained from Charles River Laboratories (Portage, Mich.). The animals were either bilaterally ovariectomized (OVX) or exposed to a Sham surgical procedure at Charles River Laboratories, and then shipped after one week. Upon arrival, they were housed in metal hanging cages in groups of 3 or 4 per cage and had ad libitum access to food (calcium content approximately 0.5%) and water for one week. Room temperature was maintained at 22.2°±1.7° C. with a minimum relative humidity of 40%. The photoperiod in the room was 12 hours light and 12 hours dark.
(§2) Dosing Regimen Tissue Collection. After a one week acclimation period (therefore, two weeks post-OVX) daily dosing with test compound was initiated. 17α-ethynyl estradiol or the test compound were given orally, unless otherwise stated, as a suspension in 1% carboxymethylcellulose or dissolved in 20% cyclodextrin. Animals were dosed daily for 4 days. Following the dosing regimen, animals were weighed and anesthetized with a ketamine: Xylazine (2:1, V:V) mixture and a blood sample was collected by cardiac puncture. The animals were then sacrificed by asphyxiation with CO2, the uterus was removed through a midline incision, and a wet uterine weight was determined.
Uterine Eosinophil Peroxidase (EPO) Assay. Uteri were kept at 4° C. until time of enzymatic analysis. The uteri were then homogenized in 50 volumes of 50 mM Tris buffer (pH−8.0) containing 0.005% Triton X-100. Upon addition of 0.01% hydrogen peroxide and 10 mM o-phenylenediamine (final concentrations) in Tris buffer, increase in absorbance was monitored for one minute at 450 nm. The presence of eosonophils in the uterus is an indication of estrogenic activity of a compound. The maximal velocity of a 15 second interval was determined over the initial, linear portion of the reaction curve.

[2] = tested on: ovariectomized (OVX) rats; assay: Uterine wet weight in ovariectomized rat post-menopausal model, 4 days of dosing; assay type: in vivo, Sprague Dawley rats; details: oral; for Uterine Weight (% increase vs. OVX): daily for 4 days
Description: In the examples illustrating the methods, a post-menopausal model was used in which effects of different treatments upon circulating lipids were determined.
as §1, §2

[3] = tested on: ovariectomized (OVX) rats; assay: Serum cholesterol analysis in ovariectomized rats, 4 days of dosing; assay type: in vivo, Sprague Dawley rats; details: oral; for Serum Cholesterol (% decrease vs. OVX): daily for 4 days
Excerpt: as §1, §2
Cholesterol Analysis. Blood samples were allowed to clot at room temperature for 2 hours, and serum was obtained following centrifugation for 10 minutes at 3000 rpm. Serum cholesterol was determined using a Boehringer Mannheim Diagnostics high performance cholesterol assay. Briefly the cholesterol was oxidized to cholest-4-en-3-one and hydrogen peroxide. The hydrogen peroxide was then reacted with phenol and 4-aminophenazone in the presence of peroxidase to produce a p-quinone imine dye, which was read spectrophotemetrically at 500 nm. Cholesterol concentration was then calculated against a standard curve. The entire assay was automated using a Biomek Automated Workstation.

[4] = tested on: MCF-7 breast adenocarcinoma cells; assay: MCF-7 Proliferation Assay (tritiated thymidine); assay type: cell-based; details: Homo sapiens, MCF7; MCF-7 cells, 48 hours with drug, tritiated thymidine pulse 4 hours
Description: MCF-7 breast adenocarcinoma cells (ATCC HTB 22) were maintained in MEM (minimal essential medium, phenol red-free, Sigma, St. Louis, Mo.) supplimented with 10% fetal bovine serum (FBS) (V/V), L-glutamine (2 mM), sodium pyruvate (1 mM), HEPES {(N-[2-hydroxyethyl]piperazine-N′-[2-ethanesulfonic acid]10 mM}, non-essential amino acids and bovine insulin (1 ug/mL) (maintenance medium). Ten days prior to assay, MCF-7 cells were switched to maintenance medium supplemented with 10% dextrancoated charcoal stripped fetal bovine serum (DCC-FBS) assay medium) in place of 10% FBS to deplete internal stores of steroids. MCF-7 cells were removed from maintenance flasks using cell dissociation medium (Ca++/Mg++ free HBSS (phenol red-free) supplemented with 10 mM HEPES and 2 mM EDTA). Cells were washed twice with assay medium and adjusted to 80,000 cells/mL. Approximately 100 μL (8,000 cells) were added to flat-bottom microculture wells (Costar 3596) and incubated at 37° C. in a 5% CO2 humidified incubator for 48 hours to allow for cell adherence and equilibration after transfer. Serial dilutions of drugs or DMSO as a diluent control were prepared in assay medium and 50 μL transferred to triplicate microcultures followed by 50 μL assay medium for a final volume of 200 μL. After an additional 48 hours at 37° C. in a 5% CO2 humidified incubator, microcultures were pulsed with tritiated thymidine (1 uCi/well) for 4 hours. Cultures were terminated by freezing at −70° C. for 24 hours followed by thawing and harvesting of microcultures using a Skatron Semiautomatic Cell Harvester. Samples were counted by liquid scintillation using a Wallac BetaPlace β counter. Results in Table 7 below show the IC50 for certain compounds of the present invention.

[5] = tested on: ovariectomized (OVX) rats; assay: Osteoporosis Test Procedure: femur bone density in OVX rats after 35 days of dosing; assay type: in vivo, Sprague Dawley rats; details: for Bone Density: mean ± SEM
Excerpt: Seventy-five day old female Sprague Dawley rats (weight range of 200 to 225 g) were obtained from Charles River Laboratories (Portage, Mich.). The animals were either bilaterally ovariectomized (OVX) or exposed to a Sham surgical procedure at Charles River Laboratories, and then shipped after one week. Upon arrival, they were housed in metal hanging cages in groups of 3 or 4 per cage and had ad libitum access to food (calcium content approximately 0.5%) and water for one week. Room temperature was maintained at 22.2°±1.7° C. with a minimum relative humidity of 40%. The photoperiod in the room was 12 hours light and 12 hours dark. Following the General Preparation Procedure, infra, the rats were treated daily for 35 days (6 rats per treatment group) and sacrificed by decapitation on the 36th day. The 35 day time period was sufficient to allow maximal reduction in bone density, measured as described herein. At the time of sacrifice, the uteri were removed, dissected free of extraneous tissue, and the fluid contents were expelled before determination of wet weight in order to confirm estrogen deficiency associated with complete ovariectomy. […] The uteri were then placed in 10% neutral buffered formalin to allow for subsequent histological analysis. The right femurs were excised and scanned at the distal metaphysis 1 mm from the patellar groove with single photon absorptiometry. Results of the densitometer measurements represent a calculation of bone density as a function of the bone mineral content and bone width. In accordance with the above procedures, compounds of the present invention and ethynyl estradiol (EE2) in 20% hydroxypropyl β-cyclodextrin were orally administered to test animals. Data presented in Tables 5 and 6 below are the results of these treatments compared to intact and ovariectomized test animals. Results are reported as the mean±the standard error of the mean.

[6] = female, Sprague Dawley, rat, in vivo, po, 0.1 mg/kg, 4 days
[7] = female, Sprague Dawley, rat, in vivo, po, 1 mg/kg, 4 days
[8] = female, Sprague Dawley, rat, in vivo, po, 10 mg/kg, 4 days
[9] = Table 5, oral, 0.01 mg/kg, OVX control 26.18, intact control 70.22, * P <= 0.05
[10] = Table 5, oral, 0.1 mg/kg, OVX control 26.18, intact control 70.22, * P <= 0.05

SMILES | Uterine EPO (V. max) [1, 6] | Uterine EPO (V. max) [1, 7] | Uterine EPO (V. max) [1, 8] | Uterine Weight (% increase vs. OVX) ([2]; dose 0.1 mg/kg) | Uterine Weight (% increase vs. OVX) ([2]; dose 1.0 mg/kg) [%] | Uterine Weight (% increase vs. OVX) ([2]; dose 10.0 mg/kg) [%] | Serum Cholesterol (% decrease vs. OVX) ([3]; dose 0.1 mg/kg) | Serum Cholesterol (% decrease vs. OVX) ([3]; dose 1.0 mg/kg) [%] | Serum Cholesterol (% decrease vs. OVX) ([3]; dose 10.0 mg/kg) [%] | IC50 [4] [nM] | further results
Oc1ccc(-c2sc3cc(O)ccc3c2C(O)c2ccc(OCCN3CCCCC3)cc2)cc1 (centres unmarked) [(b)-Ex2, [6-Hydroxy-2-(4-Hydroxyphenyl)Benzo[B]Thien-3-Yl][4-[2-(1-Piperidinyl)Ethoxy]Phenyl]Methanol] | 7.4 | 4.7 | 14.5 | 52.2% | 39.1 | 45.6 | 22.2% | 43.5 | 61.6 |  | 
Oc1ccc(-c2sc3cc(O)ccc3c2Cc2ccc(OCCN3CCCCC3)cc2)cc1 [(k)-Ex11, [6-Hydroxy-2-(4-Hydroxyphenyl)Benzo[B]Thien-3-Yl][4-[2-(1-Piperidinyl)Ethoxy]Phenyl]Methane Hydrochloride] | 7.3 | 4.8 | 5.5 | 4.0% | 23.1 | 5.2 | 43.7% | 63.0 | 60.7 |  | 
COc1ccc(-c2sc3cc(OC)ccc3c2Cc2ccc(OCCN3CCCCC3)cc2)cc1 [(p)-Ex16, [6-Methoxy-2-(4-Methoxyphenyl)Benzo[B]Thien-3-Yl][4-[2-(1-Piperidinyl)Ethoxy]Phenyl]Methane Hydrochloride] | 5.8 | 5.4 | 6.2 | −13.5% | −13.7 | −24.6 | 26.8% | 59.4 | 72.3 | 50 | Bone Density [5, 9]: 26.78 ± 4.98 mg/cm/cm; Bone Density [5, 10]: 43.30 ± 7.86 mg/cm/cm; Bone Density ([5]; Table 5, oral, 1.0 mg/kg, OVX control 26.18, intact control 70.22, * P <= 0.05): 33.62 ± 5.87 mg/cm/cm
CC(C)(C)C(=O)Oc1ccc(-c2sc3cc(OC(=O)C(C)(C)C)ccc3c2Cc2ccc(OCCN3CCCCC3)cc2)cc1 [(q)-Ex17, [6-{1,1,1-Trimethylacetyloxy}-2-(4-{1,1,1-Trimethylacetyloxy}Phenyl)Benzo[B]Thien-3-Yl][4-[2-(1-Piperidinyl)Ethoxy]Phenyl]Methane Hydrochloride] | 3.1 | 3.0 | 2.8 | −22.7% | −32.4 | −25.2 | 55.8% | 56.8 | 58.8 | 0.01 | Bone Density [5, 9]: 17.63 ± 2.94 mg/cm/cm; Bone Density [5, 10]: 24.77 ± 4.65 mg/cm/cm; Bone Density ([5]; Table 6, oral, 0.01 mg/kg, OVX control 32.46, intact control 81.27, * P <= 0.05): 36.44 ± 44 mg/cm/cm; Bone Density ([5]; Table 6, oral, 1.0 mg/kg, OVX control 32.46, intact control 81.27, * P <= 0.05): 36.07 ± 4.20 mg/cm/cm
CCCCS(=O)(=O)Oc1ccc(-c2sc3cc(OS(=O)(=O)CCCC)ccc3c2Cc2ccc(OCCN3CCCCC3)cc2)cc1 [(r)-Ex18, [6-{n-Butylsulfonoyloxy}-2-(4-{n-Butylsulfonoyloxy}Phenyl)Benzo[B]Thien-3-Yl][4-[2-(1-Piperidinyl)Ethoxy]Phenyl]Methane Hydrochloride] | 1.8 | 3.5 | 2.8 | −16.6% | −18.4 | −19.5 | 65.4% | 67.0 | 67.9 | 1000 | 
O=C(Oc1ccc(-c2sc3cc(OC(=O)c4ccccc4)ccc3c2Cc2ccc(OCCN3CCCCC3)cc2)cc1)c1ccccc1 [(s)-Ex21, [6-Benzoyloxy-2-(4-Benzoyloxyphenyl)Benzo[B]Thien-3-Yl][4-[2-{1-Piperidinyl}Ethoxy]Phenyl]Methane] | 1.8 | 2.6 | 2.3 | −19.6% | −28.7 | −26.6 | 66.2% | 63.4 | 64.4 | 0.01 | 
C#C[C@]1(O)CC[C@H]2[C@@H]3CCc4cc(O)ccc4[C@H]3CC[C@@]21C [EE2, 17α-ethynyl estradiol, reference compound] |  |  |  | 111.5% and 178.3% |  |  | 89.5% and 91.8% |  |  |  | Uterine EPO (V. max) ([1]; OVX rats, oral, daily for 4 days, dose 0.1 mg/kg): 246.0 and 173.3; Effect on uterine weight compared to ovariectomized test animals (in words) ([2]; EE2 at 0.1 mg/Kg/day): substantially greater than the uterine weight of ovariectomized test animals; Effect on serum cholesterol compared to ovariectomized control animals (in words) ([3]; EE2 at 0.1 mg/Kg/day): decrease in serum cholesterol; Bone Density ([5]; Table 5, oral, 100 μg/kg, OVX control 26.18, intact control 70.22, * P <= 0.05): 47.94 ± 3.71 mg/cm/cm; Bone Density ([5]; Table 6, oral, 100 μg/kg, OVX control 32.46, intact control 81.27, * P <= 0.05): 47.31 ± 6.42 mg/cm/cm; Prevention of femur bone loss caused by ovariectomy (in words) ([5]; oral): prevented this loss
C[C@]12CC[C@@H]3c4ccc(O)cc4CC[C@H]3[C@@H]1CCC2=O [Estrone, reference compound] |  |  |  |  |  |  |  |  |  | 1 | 
